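Test compounds were applied to cells in 96-well plates for 48 hours at 5 doses. Here, GI50 denotes the concentration required for 50% inhibition of growth.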 Activity calls are given as the source filed them. Cut-off read from the data, not from the text of the source: active = GI50 up to about 1.1 µM and inactive = higher.
What was measured:
Experiment in all cases: inhibition of tumour cell growth, NCI panel, 48 h
HL-60 = tested on: HL-60
HOP-18 = tested on: HOP-18
HOP-62 = tested on: HOP-62
IGROV-1 = tested on: IGROV-1
DLD-1 = tested on: DLD-1
DMS-114 = tested on: DMS-114
MOLT-4 = tested on: MOLT-4
OVCAR-8 = tested on: OVCAR-8
KM-20L2 = tested on: KM-20L2
A498 = tested on: A498
NCI-H23 = tested on: NCI-H23
K562 = tested on: K562
DMS-273 = tested on: DMS-273
SNB-78 = tested on: SNB-78
XF498 = tested on: XF498
PC-3 = tested on: PC-3
MDA-MB-435 = tested on: MDA-MB-435
MDA-MB-231 = tested on: MDA-MB-231
T47D = tested on: T47D
MDA-N = tested on: MDA-N

CCCn1cc2c3c(cccc31)C1C=C(C)CN(C)C1C2 (stereo not given)
GI50 (HL-60): 1.51 µM (inactive)
GI50 (HOP-18): 13.7 µM (inactive)
GI50 (HOP-62): 31.7 µM (inactive)
GI50 (IGROV-1): 27 µM (inactive)
GI50 (DLD-1): 20.7 µM (inactive)
GI50 (DMS-114): 15.1 µM (inactive)
GI50 (MOLT-4): 9.66 µM (inactive)
GI50 (OVCAR-8): 29.7 µM (inactive)
GI50 (KM-20L2): 13 µM (inactive)
GI50 (A498): 13.7 µM (inactive)
GI50 (NCI-H23): 25.5 µM (inactive)
GI50 (K562): 2.56 µM (inactive)
GI50 (DMS-273): 13.3 µM (inactive)
GI50 (SNB-78): 30.3 µM (inactive)

C=COCCCOc1ccccc1
GI50 (HL-60): > 100 µM (inactive)
GI50 (HOP-18): 1.53 µM (inactive)
GI50 (XF498): > 100 µM (inactive)
GI50 (HOP-62): > 100 µM (inactive)
GI50 (IGROV-1): 0.145 µM (active)
GI50 (DLD-1): > 100 µM (inactive)
GI50 (DMS-114): > 100 µM (inactive)
GI50 (MOLT-4): > 100 µM (inactive)
GI50 (OVCAR-8): > 100 µM (inactive)
GI50 (KM-20L2): > 100 µM (inactive)
GI50 (NCI-H23): > 100 µM (inactive)
GI50 (K562): > 100 µM (inactive)
GI50 (DMS-273): > 100 µM (inactive)

CCP(=O)(CC)C(Cl)(Cl)C(O)C(C)(C)C (stereo not given)
GI50 (HL-60): > 10 µM (inactive)
GI50 (PC-3): > 100 µM (inactive)
GI50 (MDA-MB-435): > 100 µM (inactive)
GI50 (HOP-62): > 100 µM (inactive)
GI50 (IGROV-1): > 100 µM (inactive)
GI50 (MDA-MB-231): > 100 µM (inactive)
GI50 (T47D): > 100 µM (inactive)
GI50 (MOLT-4): > 100 µM (inactive)
GI50 (OVCAR-8): > 100 µM (inactive)
GI50 (MDA-N): > 100 µM (inactive)
GI50 (A498): > 100 µM (inactive)
GI50 (NCI-H23): > 100 µM (inactive)
GI50 (K562): > 100 µM (inactive)

CC(C)(Br)C1(O)CCCN1C(=O)c1ccccc1 (stereo not given)
GI50 (HL-60): > 100 µM (inactive)
GI50 (HOP-18): > 100 µM (inactive)
GI50 (IGROV-1): > 100 µM (inactive)
GI50 (DLD-1): > 100 µM (inactive)
GI50 (MOLT-4): > 100 µM (inactive)
GI50 (OVCAR-8): > 100 µM (inactive)
GI50 (KM-20L2): > 100 µM (inactive)
GI50 (A498): > 100 µM (inactive)
GI50 (NCI-H23): > 100 µM (inactive)
GI50 (K562): 33 µM (inactive)
GI50 (DMS-273): > 100 µM (inactive)
GI50 (SNB-78): > 100 µM (inactive)

O=C(NNC(=O)c1nsc2ccccc12)c1ccc(Cl)cc1
GI50 (HL-60): 23.7 µM (inactive)
GI50 (HOP-18): 10.2 µM (inactive)
GI50 (HOP-62): 18.3 µM (inactive)
GI50 (IGROV-1): 34.5 µM (inactive)
GI50 (DMS-114): > 10 µM (inactive)
GI50 (MOLT-4): 20.4 µM (inactive)
GI50 (OVCAR-8): 29.2 µM (inactive)
GI50 (KM-20L2): 19.8 µM (inactive)
GI50 (NCI-H23): 21.9 µM (inactive)
GI50 (K562): 19.1 µM (inactive)
GI50 (DMS-273): 8.11 µM (inactive)
GI50 (SNB-78): 24.8 µM (inactive)

O=C(O)/C(=C\c1ccncc1)c1cccc2ccccc12
GI50 (HL-60): > 100 µM (inactive)
GI50 (PC-3): > 100 µM (inactive)
GI50 (MDA-MB-435): > 100 µM (inactive)
GI50 (HOP-62): > 100 µM (inactive)
GI50 (IGROV-1): > 100 µM (inactive)
GI50 (MDA-MB-231): > 100 µM (inactive)
GI50 (T47D): > 100 µM (inactive)
GI50 (MOLT-4): > 100 µM (inactive)
GI50 (OVCAR-8): > 100 µM (inactive)
GI50 (MDA-N): > 100 µM (inactive)
GI50 (NCI-H23): > 100 µM (inactive)
GI50 (K562): > 100 µM (inactive)

OCc1cn(C(c2ccccc2)(c2ccccc2)c2ccccc2)cn1
GI50 (HL-60): > 100 µM (inactive)
GI50 (PC-3): 27.5 µM (inactive)
GI50 (MDA-MB-435): > 100 µM (inactive)
GI50 (HOP-62): 44.5 µM (inactive)
GI50 (IGROV-1): > 100 µM (inactive)
GI50 (MDA-MB-231): > 100 µM (inactive)
GI50 (T47D): > 100 µM (inactive)
GI50 (MOLT-4): > 100 µM (inactive)
GI50 (OVCAR-8): > 100 µM (inactive)
GI50 (MDA-N): > 100 µM (inactive)
GI50 (NCI-H23): > 100 µM (inactive)
GI50 (K562): > 100 µM (inactive)

CC(C)(C)C(=O)OCC1OC(N=[N+]=[N-])C(OC(=O)C(C)(C)C)C(OC(=O)C(C)(C)C)C1OC(=O)C(C)(C)C (stereo not given)
GI50 (HL-60): 58.6 µM (inactive)
GI50 (XF498): > 100 µM (inactive)
GI50 (HOP-62): > 100 µM (inactive)
GI50 (IGROV-1): > 100 µM (inactive)
GI50 (DLD-1): > 100 µM (inactive)
GI50 (DMS-114): > 100 µM (inactive)
GI50 (MOLT-4): > 100 µM (inactive)
GI50 (OVCAR-8): > 100 µM (inactive)
GI50 (KM-20L2): > 100 µM (inactive)
GI50 (A498): > 100 µM (inactive)
GI50 (NCI-H23): > 100 µM (inactive)
GI50 (K562): > 100 µM (inactive)
GI50 (DMS-273): > 100 µM (inactive)
GI50 (SNB-78): > 100 µM (inactive)

CC(=O)/N=C1/N(/C=C2\C(=O)Oc3ccccc3C2=O)C(=O)/C(=C/c2ccc(NC(C)=O)cc2)N1C
GI50 (HL-60): > 100 µM (inactive)
GI50 (PC-3): > 100 µM (inactive)
GI50 (MDA-MB-435): > 100 µM (inactive)
GI50 (HOP-62): > 100 µM (inactive)
GI50 (IGROV-1): > 100 µM (inactive)
GI50 (MDA-MB-231): > 100 µM (inactive)
GI50 (T47D): > 100 µM (inactive)
GI50 (MOLT-4): > 100 µM (inactive)
GI50 (OVCAR-8): > 100 µM (inactive)
GI50 (MDA-N): > 100 µM (inactive)
GI50 (A498): > 100 µM (inactive)
GI50 (NCI-H23): > 100 µM (inactive)
GI50 (K562): > 100 µM (inactive)

CCCCCCCCCCCC1=NCCN1
GI50 (PC-3): 19.4 µM (inactive)
GI50 (MDA-MB-435): > 100 µM (inactive)
GI50 (MDA-MB-231): 23.8 µM (inactive)
GI50 (T47D): 73.3 µM (inactive)
GI50 (MOLT-4): 17.9 µM (inactive)
GI50 (OVCAR-8): > 100 µM (inactive)
GI50 (MDA-N): > 100 µM (inactive)
GI50 (A498): 0.557 µM (active)
GI50 (NCI-H23): 93.8 µM (inactive)
GI50 (K562): 39.6 µM (inactive)
